Structures can show the parent of a compound that is named as a salt.
Target: T1, P2X7 receptor (Homo sapiens, UniProt Q99572)
T1 construct: 200 μl of a suspension of THP-1 cells; endogenous in cells; host or cells: THP-1 cells
T1 sequence (Q99572 1-595): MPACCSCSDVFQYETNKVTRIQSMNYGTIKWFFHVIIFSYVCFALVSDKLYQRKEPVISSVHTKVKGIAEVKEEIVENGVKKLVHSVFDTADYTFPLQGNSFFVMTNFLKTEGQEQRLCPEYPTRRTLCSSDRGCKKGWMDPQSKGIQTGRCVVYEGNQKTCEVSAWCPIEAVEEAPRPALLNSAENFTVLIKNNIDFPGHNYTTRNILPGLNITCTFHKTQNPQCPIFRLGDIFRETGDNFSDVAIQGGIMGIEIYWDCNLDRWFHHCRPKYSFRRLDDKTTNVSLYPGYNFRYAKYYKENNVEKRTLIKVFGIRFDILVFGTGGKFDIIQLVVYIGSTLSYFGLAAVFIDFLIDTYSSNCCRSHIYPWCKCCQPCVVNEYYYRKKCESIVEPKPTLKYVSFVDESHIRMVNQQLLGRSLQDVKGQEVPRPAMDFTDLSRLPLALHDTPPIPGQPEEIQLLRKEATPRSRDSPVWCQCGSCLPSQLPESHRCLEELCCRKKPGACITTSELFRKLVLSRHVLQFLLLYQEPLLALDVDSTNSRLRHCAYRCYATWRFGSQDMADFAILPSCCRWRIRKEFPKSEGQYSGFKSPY
Experiment: P2X7 receptor antagonist test: bbATP-induced ethidium bromide fluorescence in THP-1 cells
Type: cell-based
Details: bbATP agonist, 37° C. for one hour, read-out: pIC50 (negative logarithm of the concentration of test compound necessary to reduce the bbATP agonist activity by 50%) (converted)
Source text: Certain compounds such as benzoylbenzoyl adenosine triphosphate (bbATP) are known to be agonists of the P2X7 receptor, effecting the formation of pores in the plasma membrane (Drug Development Research (1996), 37(3) p. 126). Consequently, when the receptor is activated using bbATP in the presence of ethidium bromide (a fluorescent DNA probe), an increase in the fluorescence of intracellular DNA-bound ethidium bromide is observed. The increase in fluorescence can be used as a measure of P2X7 receptor activation and therefore to quantify the effect of a compound on the P2X7 receptor.
In this manner, each of the title compounds of the Examples was tested for antagonist activity at the P2X7 receptor. Thus, the test was performed in 96-well flat bottomed microtitre plates, the wells being filled with 250 μl of test solution comprising 200 μl of a suspension of THP-1 cells (2.5×10^6 cells/ml) containing 10^−4M ethidium bromide, 25 μl of a high potassium buffer solution containing 10^−5M bbATP, and 25 μl of the high potassium buffer solution containing 3×10^−5M test compound. The plate was covered with a plastics sheet and incubated at 37° C. for one hour. The plate was then read in a Perkin-Elmer fluorescent plate reader, excitation 520 nm, emission 595 nm, slit widths: Ex 15 nm, Em 20 nm. […]

| IC50 [nM] | SMILES |
| --- | --- |
| 79.4 | O=C(NCC12CC3CC(CC(C3)C1)C2)c1cc(OCCNCCCO)ncc1Cl [Example 12, N-(1-Adamantylmethyl)-5-chloro-2-{2-[(3-hydroxypropyl)amino]ethoxy}isonicotinamide, hydrochloride] |
| 15.8 | CN(CCO)CCCc1cc(C(=O)NCC23CC4CC(CC(C4)C2)C3)c(Cl)cn1 [Example 26, N-(1-Adamantylmethyl)-5chloro-2-{3-[(2-hydroxyethyl)(methyl)amino]propyl}isonicotinamide dihydrochloride] |

Test system: not given
Experiment: not given
Details: not given

| melting point | SMILES |
| --- | --- |
| 150 °C (dec.) | NCCCc1cc(C(=O)NCC23CC4CC(CC(C4)C2)C3)c(Cl)cn1 (as salt: hydrochloride) [Example 6, N-(1-Adamantylmethyl)-2-(3-aminopropyl)-5-chloroisonicotinamide hydrochloride] |
| 206 to 208 °C (dec.) | CCNCCCc1cc(C(=O)NCC23CC4CC(CC(C4)C2)C3)c(Cl)cn1 (as salt: hydrochloride) [Example 7, N-(1-Adamantylmethyl)-5-chloro-2-[3-(ethylamino)propyl]isonicotinamide hydrochloride] |
| 205 to 208 °C | C[C@H](CO)NCCCc1cc(C(=O)NCC23CC4CC(CC(C4)C2)C3)c(Cl)cn1 (as salt: hydrochloride) [Example 9, N-(1-Adamantylmethyl)-5-chloro-2-(3-{[(1R)-2-hydroxy-1-methylethyl]amino}propyl)isonicotinamide, dihydrochloride] |
| 205 to 208 °C | C[C@@H](CO)NCCCc1cc(C(=O)NCC23CC4CC(CC(C4)C2)C3)c(Cl)cn1 (as salt: hydrochloride) [Example 10, N-(1-Adamantylmethyl)-5-chloro-2-(3-{[(1S)-2-hydroxy-1-methylethyl]amino}propyl)isonicotinamide, dihydrochloride] |
| 204 to 205 °C (dec.) | O=C(NCC12CC3CC(CC(C3)C1)C2)c1cc(CCCNCCO)ncc1Cl (as salt: hydrochloride) [Example 11, N-(1-Adamantylmethyl)5-chloro-2-{3-[(2-hydroxyethyl)amino]propyl}-isonicotinamide hydrochloride] |
| 217 to 219 °C | O=C(NCC12CC3CC(CC(C3)C1)C2)c1cc(CCCNC[C@@H](O)CO)ncc1Cl (as salt: hydrochloride) [Example 16, N-(1-Adamantylmethyl)-5-chloro-2-(3-{[(2R)-2,3-dihydroxypropyl]amino}propyl)isonicotinamide, dihydrochloride] |
| 236 to 238 °C | CC(C)(O)CNCCCc1cc(C(=O)NCC23CC4CC(CC(C4)C2)C3)c(Cl)cn1 (as salt: hydrochloride) [Example 19, N-(1-Adamantylmethyl)-5-chloro-2-{3-[(2-hydroxy-2-methylpropyl)amino]propyl}isonicotinamide dihydrochloride] |
| 216 to 219 °C | CNCCNCCCc1cc(C(=O)NCC23CC4CC(CC(C4)C2)C3)c(Cl)cn1 (as salt: hydrochloride) [Example 21, N-(1-Adamantylmethyl)-5-chloro-2-(3-{[2-(methylamino)ethyl]amino}propyl)isonicotinamide dihydrochloride] |
| 231 to 233 °C | O=C(NCC12CC3CC(CC(C3)C1)C2)c1cc(CCCNCCNCCO)ncc1Cl (as salt: hydrochloride) [Example 23, N-(1-Adamantylmethyl)-5-chloro-2-[3-({2-[(2-hydroxyethyl)amino]ethyl}amino)propyl]isonicotinamide dihydrochloride] |
| 201 to 203 °C | O=C(NCC12CC3CC(CC(C3)C1)C2)c1cc(CCCNC(CO)CO)ncc1Cl (as salt: hydrochloride) [Example 25, N-(1-Adamantylmethyl)-5-chloro-2-(3-{[2-hydroxy-1-(hydroxymethyl)ethyl]amino}propyl)isonicotinamide dihydrochloride] |
| 206 to 208 °C | CN(CCO)CCCc1cc(C(=O)NCC23CC4CC(CC(C4)C2)C3)c(Cl)cn1 (as salt: hydrochloride) [Example 26, N-(1-Adamantylmethyl)-5chloro-2-{3-[(2-hydroxyethyl)(methyl)amino]propyl}isonicotinamide dihydrochloride] |
| 224 to 226 °C | C[C@@H](O)CNCCCc1cc(C(=O)NCC23CC4CC(CC(C4)C2)C3)c(Cl)cn1 (as salt: hydrochloride) [Example 28, N-(1-Adamantylmethyl)-5-chloro-2-(3-{[(2R)-2-hydroxypropyl]amino}propyl)isonicotinamide, dihydrochloride] |
| 285 to 287 °C | CNCCCNCc1cc(C(=O)NCC23CC4CC(CC(C4)C2)C3)c(Cl)cn1 (as salt: hydrochloride) [Example 29, N-(1-Adamantylmethyl)-5chloro-2-({[3-(methylamino)propyl]amino}methyl)isonicotinamide dihydrochloride] |
| 289 to 292 °C | O=C(NCC12CC3CC(CC(C3)C1)C2)c1cc(CNCCNCCO)ncc1Cl (as salt: hydrochloride) [Example 30, N-(1-Adamantylmethyl)-5-chloro-2-[({2-[(2-hydroxyethyl)amino]ethyl}amino)methyl]isonicotinamide dihydrochloride] |
| 259 to 262 °C | CNCCNCc1cc(C(=O)NCC23CC4CC(CC(C4)C2)C3)c(Cl)cn1 (as salt: hydrochloride) [Example 31, N-(1-Adamantylmethyl)-5-chloro-2-({[2-(methylamino)ethyl]amino}methyl)isonicotinamide dihydrochloride] |
| 242 to 244 °C | O=C(NCC12CC3CC(CC(C3)C1)C2)c1cc(CCNCCO)ncc1Cl (as salt: hydrochloride) [Example 32, N-(1-Adamantylmethyl)-5-chloro-2-{3-[(2-hydroxyethyl)amino]ethyl}isonicotinamide dihydrochloride] |
| 240 to 242 °C | O=C(NCC12CC3CC(CC(C3)C1)C2)c1cc(CCNCCCO)ncc1Cl (as salt: hydrochloride) [Example 33, N-(1-Adamantylmethyl)-5-chloro-2-{3-[(3-hydroxypropyl)amino]ethyl}isonicotinamide dihydrochloride] |
| 210 to 212 °C | CNCCCc1cc(C(=O)NCC23CC4CC(CC(C4)C2)C3)c(Cl)cn1 (as salt: hydrochloride) [Example 34, N-(1-Adamantylmethyl)-5-chloro2-[3-(methylamino)propyl]isonicotinamide hydrochloride] |
| 210 to 212 °C | CNCCCNCCCc1cc(C(=O)NCC23CC4CC(CC(C4)C2)C3)c(Cl)cn1 (as salt: trifluoroacetate) [Example 22, N-(1-Adamantylmethyl)-5-chloro-2-(3-{[3-(methylamino)propyl]amino}propyl)isonicotinamide bis(trifluoroacetate)] |
| 84 to 85 °C | O=C(NCC12CC3CC(CC(C3)C1)C2)c1cc(CCCNCCCO)ncc1Cl [Example 1, N-(1-Adamantylmethyl)-5-chloro-2-{3-[(3-hydroxypropyl)-amino]propyl}isonicotinamide] |
| 105 to 107 °C | O=C(NCC12CC3CC(CC(C3)C1)C2)c1cc(CCCNCCCO)cnc1Cl [Example 3, N-(1-Adamantylmethyl)-2-chloro-5-{3-[(3-hydroxypropyl)amino]propyl}nicotinamide] |
